Measurements from patent US8546440B2, “Substituted bicyclic imidazole derivatives as gamma secretase modulators” (Janssen Pharmaceuticals, Inc., priority 2008, dated 2013).
pIC50: −log10 of the molar value.

Assays:
[1] = test system: Aβ42; assay: Screening for γ-secretase-modulating activity, Method 2: Aβ42 Alphalisa in supernatant of SKNBE2 cells carrying APP 695 wild type (Table 12c); format: cell-based; details: Homo sapiens, Method 2, Table 12c, incubated overnight
Summary of the method: (§1)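 SKNBE2 cells expressing wild-type APP695, 10^4 cells/well, exposed to compound overnight at 37 °C; secreted Aβ42 and Aβtotal in supernatant measured by AlphaLISA sandwich immunoassays (Aβ42: C-terminal/N-terminal antibodies; Aβtotal: N-terminal/4G8). IC50 from 4-parameter fit of % untreated control.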

[2] = test system: Aβtotal; assay: Screening for γ-secretase-modulating activity, Method 2: Aβtotal Alphalisa in supernatant of SKNBE2 cells carrying APP 695 wild type (Table 12c); format: cell-based; details: Homo sapiens, Method 2, Table 12c, incubated overnight
Summary of the method: as §1

[3] = test system: Aβ42; assay: Screening for γ-secretase-modulating activity, Method 1: Aβ42 sandwich ELISA in supernatant of SKNBE2 cells carrying APP 695 wild type (Tables 12a, 12b); format: cell-based; details: Homo sapiens
Summary of the method: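 Aβ42 levels in the supernatant were measured by ELISA with 450 nm colorimetric read-out after 18 h compound exposure of wild-type APP695 SKNBE2 cells plated one day earlier. IC50 was fitted with a 4-parameter model, either with fixed top/bottom and a Hill slope of 1, or as averaged values from % of vehicle control; WST-1 was used to flag cytotoxicity.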

[4] = test system: Aβtotal; assay: Screening for γ-secretase-modulating activity, Method 1: Aβtotal sandwich ELISA in supernatant of SKNBE2 cells carrying APP 695 wild type (Tables 12a, 12b); format: cell-based; details: Homo sapiens
Summary of the method: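 Aβtotal in conditioned medium was measured by 6E10/biotin-4G8 sandwich ELISA with fluorogenic peroxidase read-out. Cells were wild-type APP 695 SKNBE2, treated 18 hours in glutamine-supplemented Ultraculture. IC50 came from 4-parameter fits of inhibition, or percent of control, against concentration; toxicity was checked by WST-1.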

[5] = Table 12b, Method 1, SKNBE2 cells carrying APP 695 wild type, cell supernatant ELISA, averaged IC50 values, percentage of control vs log concentration
[6] = Table 12b, Method 1, SKNBE2 cells carrying APP 695 wild type, cell supernatant ELISA, averaged IC50 values
[7] = Method 1, Table 12a, SKNBE2 cells carrying APP 695 wild type, compounds 18 hours, ELISA, curve top and bottom fixed to 100 and 0, hill slope 1

| Structure (SMILES) | melting point | pIC50 [1] | pIC50 [2] | pIC50 [3, 5] | pIC50 [4, 6] | pIC50 [3, 7] | pIC50 [4, 7] |
| --- | --- | --- | --- | --- | --- | --- | --- |
| COc1nc(Nc2cccn3c(C)c(-c4ccccc4Cl)nc23)ccc1-n1cnc(C)n1 [Compound 145] | 250.3 °C | 8.15 | < 5.00 | – | – | – | – |
| COCCc1c(-c2ccc(F)cc2)nc2c(Nc3ccc(-n4cnc(C)n4)c(OC)c3)cccn12 [Compound 127] | 149.5 °C | 7.25 | < 5.00 | 7.05 | < 5.00 | – | – |
| COc1cc(Nc2cccn3c(C)c(-c4ccc(CC(C)C)cc4)nc23)ccc1-n1cnc(C)c1 [Compound 38] | 224.6 °C | – | – | 7.29 | < 5.52 | 7.27 | < 5.52 |
| COc1cc(Nc2cccn3cc(-c4cc(C#N)ccc4C)nc23)ccc1-n1cnc(C)c1 [Compound 105] | 127.5 °C | 7.49 | 5.18 | 7.05 | < 5.52 | – | – |
| COc1nc(Nc2cc(C(C)C)nn3cc(-c4ccccc4Cl)nc23)ccc1-n1cnc(C)c1 [Compound 163] | 179.3 °C | 6.78 | 5.08 | – | – | – | – |
| COc1cc(Nc2cccn3cc(-c4ccc(C#N)cc4)nc23)ccc1-n1cnc(C)c1 [Compound 31] | 193.4 °C | – | – | 6.23 | < 4.52 | 6.23 | < 5.30 |
| COc1cccc(-c2nc3c(Nc4ccc(-n5ccnc5)c(OC)c4)cccn3c2C)c1 [Compound 35] | 124.2 °C | – | – | 7.72 | < 5.52 | 7.72 | < 6.00 |
| COc1cc(Nc2cccn3c(OC)c(-c4ccc(F)cc4)nc23)ccc1-n1cnc(C)n1 [Compound 132] | 165.1 °C | 6.60 | 5.16 | – | – | – | – |
| COc1cc(Nc2cccn3cc(C)nc23)ccc1-n1cncn1 [Compound 80] | 147.5 °C | – | – | 5.42 | < 5.00 | – | – |
